# Laboratory results: PubChem BioAssay AID2060622 (Molecular Pharmacology Branch, DTP, NCI, 2025)
# System: 242566-281-R-J2-PDC complex spheroid viability
# Assay: Anticancer human tumor 242566-281-R-J2-PDC patient-derived pancreatic carcinoma cell line growth inhibition [CLK]
# Details: for IC50: curve of first compound; for viability, T/C: stronger effect = lower value
# How it was run: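 Multi-cell-type spheroids combined patient-derived tumor cells with HUVEC endothelial cells and human mesenchymal stem cells. Paired agents were dosed in half-log steps down from about clinical Cmax, or from 10 microM where Cmax was unknown.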
# [1] = second compound 0.0316 µM, first compound 0.0316 µM
# [2] = second compound 0.0316 µM, first compound 0.1 µM
# [3] = second compound 0.0316 µM, first compound 0.316 µM
# [4] = second compound 0.0316 µM, first compound 1 µM
# [5] = second compound 0.0316 µM, first compound 3.16 µM
# [6] = second compound 0.0316 µM, first compound 10 µM
# [7] = second compound 0.1 µM, first compound 0.0316 µM
# [8] = second compound 0.1 µM, first compound 0.1 µM
# [9] = second compound 0.1 µM, first compound 0.316 µM
# [10] = second compound 0.1 µM, first compound 1 µM
# [11] = second compound 0.1 µM, first compound 3.16 µM
# [12] = second compound 0.1 µM, first compound 10 µM
# [13] = second compound 0.316 µM, first compound 0.0316 µM
# [14] = second compound 0.316 µM, first compound 0.1 µM
# [15] = second compound 0.316 µM, first compound 0.316 µM
# [16] = second compound 0.316 µM, first compound 1 µM
# [17] = second compound 0.316 µM, first compound 3.16 µM
# [18] = second compound 0.316 µM, first compound 10 µM
# [19] = second compound 1 µM, first compound 0.0316 µM
# [20] = second compound 1 µM, first compound 0.1 µM
# [21] = second compound 1 µM, first compound 0.316 µM
# [22] = second compound 1 µM, first compound 1 µM
# [23] = second compound 1 µM, first compound 3.16 µM
# [24] = second compound 1 µM, first compound 10 µM
# [25] = second compound 3.16 µM, first compound 0.0316 µM
# [26] = second compound 3.16 µM, first compound 0.1 µM
# [27] = second compound 3.16 µM, first compound 0.316 µM
# [28] = second compound 3.16 µM, first compound 1 µM
# [29] = second compound 3.16 µM, first compound 3.16 µM
# [30] = second compound 3.16 µM, first compound 10 µM
# [31] = second compound 10 µM, first compound 0.0316 µM
# [32] = second compound 10 µM, first compound 0.1 µM
# [33] = second compound 10 µM, first compound 0.316 µM
# [34] = second compound 10 µM, first compound 1 µM
# [35] = second compound 10 µM, first compound 3.16 µM
# [36] = second compound 10 µM, first compound 10 µM
# 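Further: spheroids exposed to compounds for 7 days before readout.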
# 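Wherever viability, T/C is given: 100% = DMSO vehicle control wells.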
smiles,measurement,setting,value
Nc1ccn(C2OC(CO)C(O)C2(F)F)c(=O)n1 (centres undefined) + CNC(=O)c1ccc(Nc2nc(OC3CCCC3)c3c(-c4ccc5nc(C)oc5c4)c[nH]c3n2)c(OC)c1,IC50,second compound 0.0316 µM,84.9 nM
same,IC50,second compound 0.1 µM,115 nM
same,IC50,second compound 0.316 µM,77.1 nM
same,IC50,second compound 1 µM,56.7 nM
same,IC50,second compound 3.16 µM,32.1 nM
same,IC50,second compound 10 µM,< 31.6 nM
same,"viability, T/C",[1],91.5%
same,"viability, T/C",[2],42.9%
same,"viability, T/C",[3],21.2%
same,"viability, T/C",[4],12.3%
same,"viability, T/C",[5],9.35%
same,"viability, T/C",[6],9.34%
same,"viability, T/C",[7],91.1%
same,"viability, T/C",[8],53.3%
same,"viability, T/C",[9],26.7%
same,"viability, T/C",[10],15.5%
same,"viability, T/C",[11],12.8%
same,"viability, T/C",[12],10%
same,"viability, T/C",[13],78%
same,"viability, T/C",[14],40.5%
same,"viability, T/C",[15],25.7%
same,"viability, T/C",[16],14.8%
same,"viability, T/C",[17],12.8%
same,"viability, T/C",[18],8.22%
same,"viability, T/C",[19],62.8%
same,"viability, T/C",[20],37.8%
same,"viability, T/C",[21],19.3%
same,"viability, T/C",[22],11.9%
same,"viability, T/C",[23],9.22%
same,"viability, T/C",[24],6.78%
same,"viability, T/C",[25],50.1%
same,"viability, T/C",[26],36.2%
same,"viability, T/C",[27],16.3%
same,"viability, T/C",[28],10.7%
same,"viability, T/C",[29],7.99%
same,"viability, T/C",[30],6.76%
same,"viability, T/C",[31],45.8%
same,"viability, T/C",[32],34.7%
same,"viability, T/C",[33],19.7%
same,"viability, T/C",[34],9.76%
same,"viability, T/C",[35],8.5%
same,"viability, T/C",[36],7.44%
O=c1[nH]cc(F)c(=O)[nH]1 + CNC(=O)c1ccc(Nc2nc(OC3CCCC3)c3c(-c4ccc5nc(C)oc5c4)c[nH]c3n2)c(OC)c1,IC50,second compound 0.0316 µM,> 10000 nM
same,IC50,second compound 0.1 µM,> 10000 nM
same,IC50,second compound 0.316 µM,5150 nM
same,IC50,second compound 1 µM,1940 nM
same,IC50,second compound 3.16 µM,77.6 nM
same,IC50,second compound 10 µM,< 31.6 nM
same,"viability, T/C",[1],108%
same,"viability, T/C",[2],116%
same,"viability, T/C",[3],83.9%
same,"viability, T/C",[4],91.4%
same,"viability, T/C",[5],66.5%
same,"viability, T/C",[6],53.5%
same,"viability, T/C",[7],96%
same,"viability, T/C",[8],96.5%
same,"viability, T/C",[9],86.4%
same,"viability, T/C",[10],71.7%
same,"viability, T/C",[11],63.9%
same,"viability, T/C",[12],52.2%
same,"viability, T/C",[13],86.1%
same,"viability, T/C",[14],66.9%
same,"viability, T/C",[15],67.6%
same,"viability, T/C",[16],74%
same,"viability, T/C",[17],53.9%
same,"viability, T/C",[18],41.3%
same,"viability, T/C",[19],67%
same,"viability, T/C",[20],61.2%
same,"viability, T/C",[21],62.6%
same,"viability, T/C",[22],56.9%
same,"viability, T/C",[23],45%
same,"viability, T/C",[24],25.5%
same,"viability, T/C",[25],51.9%
same,"viability, T/C",[26],50.7%
same,"viability, T/C",[27],44.7%
same,"viability, T/C",[28],46.2%
same,"viability, T/C",[29],38.2%
same,"viability, T/C",[30],22.5%
same,"viability, T/C",[31],48%
same,"viability, T/C",[32],50.2%
same,"viability, T/C",[33],47.3%
same,"viability, T/C",[34],44.2%
same,"viability, T/C",[35],34.2%
same,"viability, T/C",[36],23.2%
